Source: patent publication US11021445B2, “Carboxylic acid derivative as AT2R receptor antagonist” (SHANDONG DANHONG PHARMACEUTICAL CO., LTD., priority 2017, dated 2021)

Each compound was assayed against T1, hAT2 (Homo sapiens, UniProt P50052) (assay: hAT2 receptor binding assay (SPA, [125I]-Sar1-Ile8-Angiotensin II)). Conditions: membrane of HEK-293 cells overexpressing hAT2; 0.1 nM 125I ligand.
T1 construct: expressed in transfected cells; host or cells: HEK-293
T1 sequence (P50052 1-363): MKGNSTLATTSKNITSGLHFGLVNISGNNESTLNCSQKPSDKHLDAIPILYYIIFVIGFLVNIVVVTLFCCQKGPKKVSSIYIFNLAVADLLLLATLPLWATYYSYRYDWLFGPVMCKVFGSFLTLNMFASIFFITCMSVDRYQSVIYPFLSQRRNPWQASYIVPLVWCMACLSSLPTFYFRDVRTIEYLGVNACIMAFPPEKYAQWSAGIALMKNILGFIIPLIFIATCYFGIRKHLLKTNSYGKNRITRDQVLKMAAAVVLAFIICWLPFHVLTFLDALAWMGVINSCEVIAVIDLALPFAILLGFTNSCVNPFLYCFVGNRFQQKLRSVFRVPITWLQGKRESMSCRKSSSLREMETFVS
Protocol: hAT2 Receptor Binding Assay
Protease inhibitor mixture, free of ethylenediaminetetraacetic acid-1 tablets (Roche #11873580001) (50 mL plus one piece)
Experimental Methods and Steps
The reference ligand PD123319 and the test compound were prepared into a 750 μM mother liquor by DMSO; each compound was prepared into a solution of 8 concentration gradients (up to a concentration of 750 μM, 3-fold dilution) and 10 μl of the solution was added to a master of a 384-well plate per well.
The SPA beads were prepared to a mother liquor of 25 mg/ml by the buffer;
The isotope [^125I]-Sar1-Ile8-Angiotensin II was prepared into a mother liquor of 50 μCi/ml by adding pure water.
The cell membrane overexpressing hAT2 in HEK-293 cells was prepared to 2.5 mg/ml by the buffer.
200 nl of compound was aspirated from the mother plate with ECHO to each well of the 384-well test plate. ZPE was added to an equal volume of DMSO. (The concentration of the test compound in the reaction was diluted by 250 times).
A 50 ml membrane solution containing 10 μg/μl of magnetic beads and 0.05 μg/μl of AT2 was prepared, placed on a shaker and uniformly mixed. (100 rpm, 30 min). The test plate finally contained an hAT2 membrane with 1.25 μg/well and magnetic beads with 250 μg/well.
A 3.2 ml membrane liquid mixture was added to the compound test plate by using a Multidrop Combi pipette, and 25 μl was added to each well.
A 0.2 nM solution was prepared with 50 μCi/ml of isotope [^125I]-Sar1-Ile8-Angiotensin II mother liquor by the buffer, and 0.2 nM of ^125I was added to the compound test plate with a Multidrop Combi pipette. A volume of 25 μl was added to each well. The final concentration of ^125I isotope is 0.1 nM.
The prepared test plate was placed on a shaker overnight at room temperature at 200 rpm.
The test plate was centrifuged with a centrifuge at 1200 rpm for 1 min.
The centrifuged test plate was read with Microbeta.

Point of comparison: `COc1ccc2c(c1OCc1ccccc1)C[C@@H](C(=O)O)N(C(=O)[C@@H](OC1CC3CC3C1)c1ccccc1)C2` (stereo partly shown) [Compound 55], IC50 4.4 nM. Against it:
- O=C(O)[C@@H]1Cc2c(cccc2OCc2ccccc2)CN1C(=O)[C@H](O[C@H]1C[C@@H](O)C1)c1ccccc1 [Compound 86] — 200-fold higher, 879 nM
- COc1ccc2c(c1OCc1ccccc1)C[C@@H](C(=O)O)N(C(=O)[C@H](Oc1ccc(C#N)cc1)c1ccccc1)C2 [Compound 30] — 85-fold higher, 373 nM
- COc1ccc2c(c1OCc1ccccc1)C[C@@H](C(=O)O)N(C(=O)[C@@H](Oc1ccccc1)c1ccccc1)C2 [Compound 19] — 57-fold higher, 250 nM
- COc1ccc2c(c1OCc1ccccc1)C[C@@H](C(=O)O)N(C(=O)[C@H](O[C@H]1CC[C@H](O)CC1)c1ccccc1)C2 [Compound 66] — higher, > 3000 nM
- Cc1ccc2c(c1OCc1ccccc1)C[C@@H](C(=O)O)N(C(=O)[C@H](OC1(C)CCCC1)c1ccccc1)C2 [Compound 70] — 15-fold higher, 65.6 nM
- O=C(O)[C@@H]1Cc2c(ccc(Cl)c2OCc2ccccc2)CN1C(=O)[C@@H](O[C@H]1CC[C@@H](O)CC1)c1ccccc1 [Compound 77] — 200-fold higher, 881 nM
- CCCCO[C@@H](C(=O)N1Cc2ccc(OC)c(OCc3ccccc3)c2C[C@H]1C(=O)O)c1ccccc1 [Compound 6] — 87-fold higher, 383 nM
- COc1ccc2c(c1OCc1cccs1)C[C@@H](C(=O)O)N(C(=O)[C@@H](OC1CCCC1)c1ccccc1)C2 [Compound 117] — 2.1-fold higher, 9.1 nM
- COc1ccc2c(c1OCc1ccccc1)C[C@@H](C(=O)O)N(C(=O)[C@H](Oc1ccc(F)cc1F)c1ccccc1)C2 [Compound 28] — 6.8-fold higher, 29.8 nM
- Cc1ccc2c(c1OCc1ccccc1)C[C@@H](C(=O)O)N(C(=O)[C@@H](O[C@H]1CC[C@@H](O)CC1)c1ccccc1)C2 [Compound 71] — 250-fold higher, 1090 nM
- COc1ccc2c(c1OCc1ccccc1)C[C@@H](C(=O)O)N(C(=O)[C@H](c1ccccc1)N(C)C1CCCC1)C2 [Compound 45] — 110-fold higher, 487 nM
- Cc1ccc2c(c1OCc1ccccc1)C[C@@H](C(=O)O)N(C(=O)[C@H](OC1CC(F)(F)C1)c1ccccc1)C2 [Compound 68] — 15-fold higher, 67 nM
- N#Cc1ccc2c(c1OCc1ccccc1)C[C@H](C(=O)O)N(C(=O)[C@@H](OC1CCCC1)c1ccccc1)C2 [Compound 110] — 130-fold higher, 552 nM
- COc1ccc2c(c1OCc1ccccc1)C[C@@H](C(=O)O)N(C(=O)[C@@H](Oc1ccccc1F)c1ccccc1)C2 [Compound 17] — 32-fold higher, 143 nM
- COc1ccc2c(c1OCc1ccccc1)C[C@@H](C(=O)O)N(C(=O)[C@H](O[C@@H]1CCOC1)c1ccccc1)C2 (single isomer, unassigned) [Compound 10] — 14-fold higher, 60.7 nM
- COc1ccc2c(c1OCc1ccccc1)C[C@@H](C(=O)O)N(C(=O)[C@H](Oc1ccccc1)c1ccccc1)C2 [Compound 20] — 40-fold higher, 176 nM
- O=C(O)[C@@H]1Cc2c(ccc(Cl)c2OCc2ccccc2)CN1C(=O)[C@H](OC1CC(F)(F)C1)c1ccccc1 [Compound 74] — 29-fold higher, 129 nM
- COc1ccc2c(c1OCc1ccccc1)C[C@@H](C(=O)O)N(C(=O)[C@H](OC1CCC3CC31)c1ccccc1)C2 (single isomer, unassigned) [Compound 61] — 17-fold higher, 72.7 nM
- COc1ccc2c(c1OCc1ccccc1)C[C@@H](C(=O)O)N(C(=O)[C@H](OC1CCC3CC31)c1ccccc1)C2 (single isomer, unassigned) [Compound 62] — 61-fold higher, 270 nM
- COc1ccc2c(c1OCc1ccccc1)C[C@@H](C(=O)O)N(C(=O)[C@@H](OCC(F)(F)F)c1ccccc1)C2 [Compound 7] — 8-fold higher, 35.2 nM
- COc1ccc2c(c1OCc1ccccc1)C[C@@](C)(C(=O)O)N(C(=O)[C@@H](OC1CCCC1)c1ccccc1)C2 [Compound 113] — higher, > 3000 nM
- COc1ccc2c(c1OCc1ccccc1)C[C@@H](C(=O)O)N(C(=O)C(Oc1ccccc1)c1ccccc1)C2 (stereo partly shown) [Compound 46] — 42-fold higher, 186 nM
- COc1ccc2c(c1OCc1ccccc1)C[C@@H](C(=O)O)N(C(=O)[C@@H](Oc1cccs1)c1ccccc1)C2 [Compound 25] — 16-fold higher, 72.1 nM
- COc1ccc(O[C@@H](C(=O)N2Cc3ccc(OC)c(OCc4ccccc4)c3C[C@H]2C(=O)O)c2ccccc2)cc1 [Compound 24] — 44-fold higher, 192 nM
- COc1ccc2c(c1OCc1ccccc1)C[C@@H](C(=O)O)N(C(=O)[C@H](OC1CCCC1)c1ccc(F)cc1)C2 [Compound 54] — higher, > 3000 nM
- COc1ccc2c(c1OCc1ccccc1)C[C@@H](C(=O)O)N(C(=O)[C@H](Oc1cccs1)c1ccccc1)C2 [Compound 26] — 22-fold higher, 95.1 nM
- N#Cc1ccc2c(c1OCc1ccccc1)C[C@@H](C(=O)O)N(C(=O)[C@@H](OC1CCCC1)c1ccccc1)C2 [Compound 109] — 240-fold higher, 1050 nM
- COc1ccc2c(c1OCc1ccccc1)C[C@@H](C(=O)O)N(C(=O)[C@@H](O[C@H]1CC[C@H](O)CC1)c1ccccc1)C2 [Compound 65] — 36-fold higher, 157 nM
- COc1ccc2c(c1OCc1ccccc1)C[C@@H](C(=O)O)N(C(=O)[C@H](OC1(C)CCCC1)c1ccccc1)C2 [Compound 58] — 35-fold higher, 155 nM
- O=C(O)[C@@H]1Cc2c(ccc(O)c2OCc2ccccc2)CN1C(=O)[C@@H](OC1CCCC1)c1ccccc1 [Compound 118] — 6.9-fold higher, 30.4 nM
- COc1ccc2c(c1OCc1ccccc1)C[C@@H](C(=O)O)N(C(=O)[C@@H](Oc1ccc3ccccc3c1)c1ccccc1)C2 [Compound 35] — 280-fold higher, 1240 nM
- COc1ccc2c(c1OCc1ccccc1)CC(C(=O)O)N(C(=O)C(OC1CCOCC1)c1ccccc1)C2 (single isomer, unassigned) [Compound 2] — 190-fold higher, 850 nM
- O=C(O)[C@@H]1Cc2c(cccc2OCc2ccccc2)CN1C(=O)[C@@H](OC1CC(F)(F)C1)c1ccccc1 [Compound 83] — within 1.5-fold, 3.2 nM
- COc1ccc2c(c1OCc1ccccc1)C[C@@H](C(=O)O)N(C(=O)[C@@H](OC(C)(C)C)c1ccccc1)C2 [Compound 39] — 4.2-fold higher, 18.5 nM
- COc1ccc2c(c1OCc1ccccc1)CC(C(=O)O)N(C(=O)C(OC1CCOCC1)c1ccccc1)C2 (single isomer, unassigned) [Compound 1] — 15-fold higher, 66.4 nM
- Cc1ccc2c(c1OCc1ccccc1)C[C@@H](C(=O)O)N(C(=O)[C@@H](OC1CC(F)(F)C1)c1ccccc1)C2 [Compound 67] — 2.8-fold lower, 1.6 nM
